Residues, ends and D or L forms follow the SMILES beside them.

This experiment is described as follows: Binding affinity against Protease.

In the case of `CSCC[C@H](NC(=O)[C@H](CCC(=O)O)NC(=O)[C@H](CC(=O)O)NC(C)=O)C(=O)N[C@@H](CCC(=O)O)C(=O)N[C@@H](CCC(=O)O)C(=O)N[C@@H](CS)C(=O)O` [AcAsp-Glu-Met-Glu-Glu-Cys] (Ac-DEMEEC-OH), the Ki was 600 nM.

The values above are taken from BindingDB's records for doi:10.1021/jm990412m (University of Queensland, 2000).
